In this assay the test system is alpha-smooth muscle actin (α-SMA). Kind of assay: Inhibition of TGF-β induced expression of alpha-smooth muscle actin (α-SMA) in CFSC cells, western blot. The assay is classed as cell-based. As to conditions: compound at 10 μM, TGF-β (10 ng/mL), 24 hours, decrease in band intensity vs TGF-β only. How it is done: The ability of a compound to inhibit the TGF-β induced expression of alpha-smooth muscle actin (α-SMA) was evaluated in CCL4-treated fat storing (CFSC) cells. α-SMA is considered as a reliable marker of hepatic stellate cell activation and a key biomarker for liver fibrosis. See, e.g., Meng et al., Nat. Rev. Nephrol. 2016, 12, 325-38; Fabregat et al., FEBS J. 2016, 283, 2219-32.
CFSC cells maintained in a DMEM medium supplemented with 10% fetal bovine serum were seeded to 12-well culture dishes and grown to a confluence of 60-70% the next day. Culture was changed to a serum-free DMEM medium and treated with a compound at 10 μM in the presence of TGF-β (10 ng/mL). The cells were incubated for another 24 hours. All culture was maintained at 37° C. in 5% carbon dioxide.
A NP-40 lysate solution (50 mM Tris (pH 7.4), 150 mM NaCl, 1% NP-40) with EDTA free cocktail added was used to lyse the cells on ice for 30 min. The lysate was collected and centrifuged at 4° C. for 10 min at 12,000 rpm. The pellet was discarded and the supernatant was transferred to a new tube. Cell lysates were loaded with 5×loading buffer and boiled for 10 min, resolved by 10% SDS-polyacrylamide gel electrophoresis (SDS-PAGE), and transferred to PVDF membrane. The membrane was blocked with 5% skim milk in Tris-buffered saline and TWEEN® 20 (TBST; 10 mM Tris-HCl (pH 8.0), 150 mM NaCl, 0.1% TWEEN® 20) for 1 h at room temperature and then incubated with α-SMA and […] antibodies overnight at 4° C. After washing twice with TBST, the membrane was probed with a horseradish […] anti-immunoglobulin (1:5000 dilution) for 1 h at room temperature. After two subsequent rinses in TBST, immunoreactive products were reacted with ECL and visualized by a UVP CHEMSTUDIO™ imaging system. The western blotting bands are quantitated using an ImageJ software. The percentage of inhibition was obtained by calculating the percentage decrease in the band intensity compared to the one treated with TGF-β only.
The results are summarized in Table 1, wherein A represents a value no less of 90% inhibition, B represents a value less than 90% but no less than 80% inhibition, C represents a value less than 80% but no less than 70% inhibition, D represents a value less than 70% but no less than 50% inhibition, and E represents a value less than 50% with a compound at 10 μM.
(In general: A western blot detects proteins with antibodies after separation by electrophoresis.)

From patent US12649712B2, “Indene compounds, pharmaceutical compositions thereof, and their therapeutic applications” (NucMito Pharmaceuticals Co. Ltd., priority 2020, dated 2026) come the findings set out here.

By inhibition is commonly meant the share of the control response that was lost under treatment. Higher therefore signals strong suppression.

On to `O=C(O)CC1=C(Cc2ccccc2)/C(=C/c2ccc(Oc3ccc(F)cc3)cc2)c2ccc(F)cc21` [Compound D9, 2-[(1Z)-5-Fluoro-2-benzyl-1-({4-[4-fluorophenoxy]phenyl}methylidene)-1H-inden-3-yl]acetic acid], for which the inhibition at 10 µM was < 50%.

As for `CC1=C(CC(=O)O)c2cc(F)ccc2/C1=C\c1cccc(Oc2ccccc2)c1` [Compound D18, (Z)-2-(5-Fluoro-2-methyl-1-(3-phenoxybenzylidene)-1H-inden-3-yl)acetic acid], the inhibition at 10 µM is > 90%.

Regarding `CC1=C(CC(=O)O)c2cc(F)ccc2/C1=C\c1ccc(Oc2ccccc2)cc1` [Compound A1, 2-[(1Z)-5-Fluoro-2-methyl-1-[(4-phenoxyphenyl)methylidene]-1H-inden-3-yl]acetic acid], the inhibition at 10 µM was > 90%.

As to `CC1=C(CCc2nnn[nH]2)c2ccccc2/C1=C\c1ccc(Oc2ccc(C(F)(F)F)cc2)cc1` [Compound A45, 5-{2-[(1Z)-2-Methyl-1-({4-[4-(trifluoromethyl)phenoxy]phenyl}methylidene)-1H-inden-3-yl]ethyl}-1H-1,2,3,4-tetrazole], the inhibition at 10 µM is > 90%.

As for `CC1=C(CC(=O)O)c2cc(F)ccc2/C1=C\c1ccc(N2CCOCC2)cc1` [Compound A55, 2-[(1Z)-5-Fluoro-2-methyl-1-{[4-(morpholin-4-yl)phenyl]methylidene}-1H-inden-3-yl]acetic acid], the inhibition at 10 µM is < 50%.

As to `CC1=C(CCc2nnn[nH]2)c2ccccc2/C1=C\c1ccc(Oc2cccc(C#N)c2)cc1` [Compound A47, 3-(4-{[(1Z)-2-Methyl-3-[2-(1H-1,2,3,4-tetrazol-5-yl)ethyl]-1H-inden-1-ylidene]methyl}phenoxy)benzonitrile], the inhibition at 10 µM is > 90%.

`CC1=C(CC(=O)NO)c2cc(F)ccc2/C1=C\c1ccc(Oc2ccc(F)cc2)cc1` [Compound A24, 2-[(1Z)-5-Fluoro-1-{[4-(4-fluorophenoxy)phenyl]methylidene}-2-methyl-1H-inden-3-yl]-N-hydroxyacetamide] registered an inhibition at 10 µM of 80 to 90%.

In the case of `CC1=C(CC(=O)O)c2cc(F)ccc2/C1=C\c1ccc(Oc2ccc(C)cc2)cc1` [Compound A4, 2-[(1Z)-5-Fluoro-2-methyl-1-{[4-(4-methylphenoxy)phenyl]methylidene}-1H-inden-3-yl]acetic acid], the inhibition at 10 µM was > 90%.

On to `CCN(c1ccc(F)cc1)c1ccc(/C=C2/C(C)=C(CC(=O)O)c3cc(F)ccc32)cc1` [Compound A32, 2-[(1Z)-1-({4-[Ethyl(4-fluorophenyl)amino]phenyl}methylidene)-5-fluoro-2-methyl-1H-inden-3-yl]acetic acid], for which the inhibition at 10 µM is > 90%.

With `CC1=C(CC(=O)O)c2cc(F)ccc2/C1=C/c1ccc(Oc2ccc(F)cc2)cc1` [Compound E2, 2-[(1E)-5-Fluoro-2-methyl-1-({4-[4-fluorophenoxy]phenyl}methylidene)-1H-inden-3-yl]acetic acid], the inhibition at 10 µM is > 90%.

As for `CC1=C(Cc2nnn[nH]2)c2ccccc2/C1=C\c1cccc(Oc2ccccc2)c1` [Compound A39, 5-{[(1Z)-2-Methyl-1-[(3-phenoxyphenyl)methylidene]-1H-inden-3-yl]methyl}-1H-1,2,3,4-tetrazole], the inhibition at 10 µM was > 90%.

For the compound `CC1=C(CC(=O)NCCO)c2cc(F)ccc2/C1=C\c1ccc(Oc2ccc(F)cc2)cc1` [Compound A27, 2-[(1Z)-5-Fluoro-1-{[4-(4-fluorophenoxy)phenyl]methylidene}-2-methyl-1H-inden-3-yl]-N-(2-hydroxyethyl)acetamide], the inhibition at 10 µM is 80 to 90%.

For the compound `CC1=C(CC(=O)O)c2c(F)cc(F)cc2/C1=C\c1ccc(Oc2ccc(F)cc2)cc1` [Compound D16, 2-[(1Z)-4,6-Difluoro-2-methyl-1-({4-[4-fluorophenoxy]phenyl}methylidene)-1H-inden-3-yl]acetic acid], the inhibition at 10 µM was < 50%.

For `CC1=C(CC(=O)O)c2cc(F)ccc2/C1=C\c1ccc(-n2cccc2)cc1` [Compound A60, 2-[(1Z)-5-Fluoro-2-methyl-1-{[4-(1H-pyrrol-1-yl)phenyl]methylidene}-1H-inden-3-yl]acetic acid], the inhibition at 10 µM was < 50%.

On to `CC1=C(CCc2nnn[nH]2)c2ccccc2/C1=C\c1ccc(Oc2ccc(Br)cc2)cc1` [Compound A42, 5-{2-[(1Z)-1-{[4-(4-Bromophenoxy)phenyl]methylidene}-2-methyl-1H-inden-3-yl]ethyl}-1H-1,2,3,4-tetrazole], for which the inhibition at 10 µM is 70 to 80%.

On to `CC1=C(CC(=O)O)c2cc(F)ccc2/C1=C\c1ccc(C)c2ccccc12` [Compound B35, 2-[(1Z)-5-fluoro-2-methyl-1-[(4-methylnaphthalen-1-yl)methylidene]-1H-inden-3-yl]acetic acid], for which the inhibition at 10 µM was > 90%.

`CC1=C(CC(=O)O)c2cc(F)ccc2/C1=C\c1ccc(Oc2ccc(F)cc2F)cc1` [Compound A16, 2-[(1Z)-1-{[4-(2,4-Difluorophenoxy)phenyl]methylidene}-5-fluoro-2-methyl-1H-inden-3-yl]acetic acid]: the inhibition at 10 µM is > 90%.

On to `CC1=C(CC(=O)O)c2cc(F)cc(F)c2/C1=C/c1cccc(Oc2ccccc2)c1` [Compound E6, 2-[(1E)-5,7-Difluoro-1-(3-(phenoxy)benzylidene)-2-methyl-1H-inden-3-yl]-acetic acid], for which the inhibition at 10 µM was > 90%.

In turn, `CC1=C(CC(=O)N(C)O)c2cc(F)ccc2/C1=C\c1cccc(Oc2ccccc2)c1` [Compound C3, (Z)-2-(5-Fluoro-2-methyl-1-(3-phenoxybenzylidene)-1H-inden-3-yl)-N-hydroxy-N-methylacetamide] came in with an inhibition at 10 µM of 80 to 90%.

For the compound `COc1cccc(Oc2ccc(/C=C3/C(C)=C(CCc4nnn[nH]4)c4ccccc43)cc2)c1` [Compound A48, 5-{2-[(1Z)-1-{[4-(3-Methoxyphenoxy)phenyl]methylidene}-2-methyl-1H-inden-3-yl]ethyl}-1H-1,2,3,4-tetrazole], the inhibition at 10 µM is > 90%.

`CCCN(c1ccc(F)cc1)c1ccc(/C=C2/C(C)=C(CC(=O)O)c3cc(F)ccc32)cc1` [Compound A33, 2-[(1Z)-5-Fluoro-1-({4-[(4-fluorophenyl)(propyl)amino]phenyl}methylidene)-2-methyl-1H-inden-3-yl]acetic acid] had an inhibition at 10 µM of 70 to 80%.

As to `CC1=C(CC(=O)NO)c2cc(F)ccc2/C1=C\c1ccc(N(CCO)c2ccc(F)cc2)cc1` [Compound A85, 2-[(1Z)-5-Fluoro-1-({4-[(4-fluorophenyl)(2-hydroxyethyl)amino]phenyl}-methylidene)-2-methyl-1H-inden-3-yl]-N-hydroxyacetamide], the inhibition at 10 µM was > 90%.

As for `CC1=C(CC(=O)O)c2cc(F)ccc2/C1=C\c1ccc(N(c2ccccc2)c2ccc(C=O)cc2)cc1` [Compound A36, 2-[(1Z)-5-Fluoro-1-({4-[(4-formylphenyl)(phenyl)amino]phenyl}methylidene)-2-methyl-1H-inden-3-yl]acetic acid], the inhibition at 10 µM was > 90%.

As for `CC1=C(CC(=O)O)c2cc(F)ccc2/C1=C/c1ccc(Oc2ccc(F)c(F)c2)cc1` [Compound E1, 2-[(1E)-5-Fluoro-2-methyl-1-({4-[3,4-difluorophenoxy]phenyl}methylidene)-1H-inden-3-yl]acetic acid], the inhibition at 10 µM is > 90%.
